What all share (experiment): fluorescent intercalator displacement
What all share (conditions): ethidium bromide (5 μM) displaced; DNA 10 μM/bp; per base

In assay [1] the test system is A5T5 (DNA, duplex) GGGAAAAATTTTTCCC
Assay [2] has as its system (AT)5 (DNA, duplex) GGGATATATATATCCC
For assay [3], the system named is G5C5 (DNA, duplex) AAAGGGGGCCCCCTTT

With `CC1=CC(=[N+](C)C)C=CC1=C(c1ccc(N(C)C)cc1C)c1ccc(N(C)C)cc1C`, the values for the C50 in assay [1], in assay [2] and in assay [3] were 2.40 ± 0.02 µM, 2.30 ± 0.03 µM and 7.21 ± 0.63 µM, respectively.
As for `CN(C)c1ccc([C+](c2ccc(N(C)C)c(-c3ccccc3)c2)c2ccc(N(C)C)c(-c3ccccc3)c2)cc1-c1ccccc1`, the C50 in assay [1] worked out at 3.13 ± 0.01 µM; in assay [3], 3.36 ± 0.07 µM.
On to `CN(C)c1ccc([C+](c2ccc(N(C)C)cc2)c2ccc(N(C)C)c(-c3ccccc3)c2)cc1`, for which, in assay [2], the C50 worked out at 2.75 ± 0.21 µM.
For `CN(C)c1ccc([C+](c2ccc(N(C)C)cc2)c2ccc3cc(N(C)C)ccc3c2)cc1`, the values for the C50 in assay [1], in assay [2] and in assay [3] were 0.52 ± 0.01 µM, 0.32 ± 0.02 µM and 0.88 ± 0.01 µM, respectively.

The values above are taken from publication PMC12384515 (2023).
